# Patent publication US7662361B2, “Methods and compositions for modulating drug activity through telomere damage” (priority 1999, dated 2010)
# Key:
# Type in all cases: cell-based, human
# [1] = system: FaDu cells; assay: Cell growth of hTR antisense transfected cells; conditions: stably transfected FaDu cells
# Description: Transfection procedures. Transfection of the antisense construct used an IPTG-inducible mammalian expression system, i.e., the LacSwitch II system (Stratagene), which consists of a recombinant vector (i.e., pOPRSVI) and an operator vector (i.e., pCMVLacI). The pOPRSVI vector contains both ampicillin and G418^r resistance genes which facilitate the selection of positive clones from E. Coli and eukaryotic cells. The 8 unique cloning sites of the vector facilitate bi-directional insertion of a cDNA to produce either sense or antisense transcripts. The Lac repressor vector (pCMVLacI) produces the Lac repressor protein, which binds to and inhibits the operator sequence in the pOPRSVI vector and thereby inhibits the expression of the inserted gene. IPTG decreases the binding affinity of the Lac repressor protein to the operator sequence and triggers transcription and expression of the inserted gene. The transfection procedures consisted of stable transfection of FaDu cells with first, the pCMVLacI vector, and then second, the pOPRSVI/MCS vector which contained an antisense or sense hTR fragment. Transfection was performed using Lipofectamine-mediated gene transfer. The selection of the clones expressing the pCMVLacI repressor construct was performed using […] of the antibiotic hygromycin. The selection of the clones expressing the pOPRSVI vector using G418. […]
# [2] = system: FaDu cells; assay: TALA telomere length in hTR antisense transfected cells
# [3] = system: telomerase (hTR); assay: Improved TRAP telomerase activity in hTR antisense transfected cells
# Protocol: First, the extraction procedures in the conventional TRAP were not sufficient to completely lyse the cell nuclei and the extraction efficiency varied with the ratio between the volume of the extraction buffer and the volume of cells. […] For the preparation of cell and tissue extracts, cells and tissue were harvested, washed, and stored at −70° C. Cells were then lysed in a SDS-based lysis buffer (10 mM Tris.HCl, pH 7.5, 1 mM MgCl2, 1 mM EGTA, 0.1 mM phenylmethylsulfonyl fluoride, 5 mM β-mercaptoethanol, 0.1% CHAPS, and 10% glycerol), on ice for 10 min. To this mixture, three volumes of CHAPS-based buffer (10 mM Tris-HCl, pH 7.5, 1 mM MgCl2, 1 mM EGTA, 0.1 mM phenylmethylsulfonyl fluoride, 5 mM β-mercaptoethanol, 0.5% CHAPS, and 10% glycerol) were added and kept on ice for 5 min. SDS is a strong detergent which can completely lyse the cell including the nucleus. […] The protein concentration of the supernatant was determined using Bicinchoninic Acid Kit (Sigma, St Louis, Mo.). […] Samples with equal amounts of protein (1-2 μg) were analyzed by TRAP. In this assay, the enzyme activity is measured as the synthesis of repeating telomere hexamers (TTAGGG; SEQ ID NO: 10). […]
# [4] = system: telomerase activity of FaDu cells; assay: TRAP telomerase activity in drug-treated cells; conditions: cisplatin treatment, 48 to 96 hr
# Protocol: For the preparation of cell and tissue extracts, cells and tissue were harvested, washed, and stored at −70° C. Cells were then lysed in a SDS-based lysis buffer (10 mM Tris.HCl, pH 7.5, 1 mM MgCl2, 1 mM EGTA, 0.1 mM phenylmethylsulfonyl fluoride, 5 mM β-mercaptoethanol, 0.1% CHAPS, and 10% glycerol), on ice for 10 min. To this mixture, three volumes of CHAPS-based buffer (10 mM Tris-HCl, pH 7.5, 1 mM MgCl2, 1 mM EGTA, 0.1 mM phenylmethylsulfonyl fluoride, 5 mM β-mercaptoethanol, 0.5% CHAPS, and 10% glycerol) were added and kept on ice for 5 min. […] For the extraction of tissues, tissues were homogenized in SDS-based lysis buffer with a Kontes pellet pestle (Fisher, Pittsburgh, Pa.), mixed with three volumes of CHAPS-based buffer, and centrifuged were centrifuged at 8,000 g for 15 min at 4° C. The supernatant was kept at −20° C. The protein concentration of the supernatant was determined using Bicinchoninic Acid Kit (Sigma, St Louis, Mo.). The protein concentration was adjusted to 0.5 μg/μl with CHAPS-based buffer. Samples with equal amounts of protein (1-2 μg) were analyzed by TRAP. […] The TRAP reaction mixture contained 2-4 μl of protein extract, 20 mM Tris.HCl (pH 8.3), 1.5 mM MgCl2, 63 mM KCl, 0.005% Tween-20, 1 mM EGTA, 50 μM dNTPs, 0.1 μg of TS primer, 0.1 mg/ml bovine serum albumin. The mixture was incubated at 30° C. for 30 min, then at 90° C. for 2 min.
# This was accomplished by using phenol/chloroform extraction of the cell lysate, as follows. One μg of tRNA and 0.1 ng internal control template were added to the reaction solution after primer extension. The total volume of the mixture was brought to 100 μl with water, mixed with an equal volume of buffer saturated phenol (Life Technology) and then centrifuged at 18,000 g for 3 min, at room temperature. The top aqueous layer (90 μl) was carefully transferred to a new tube and mixed with an equal volume of chloroform:isoamyl alcohol (24:1) solution and centrifuged at 18,000 g for 3 min, at room temperature. The top aqueous layer (80 μl) was again transferred to a new tube and the nucleotides were precipitated with 0.2 volume of 3 M sodium acetate (pH 5.3) and 3 volume of 100% ethanol at −70° C. for at least 2 hr. The mixture was centrifuged at 18,000 g for 15 min at 4° C. […]
# The template for the internal standard was amplified by PCR and purified by spin columns (QIAquick PCR purification kit, Qiagen, Valencia, Calif.). The concentration was determined by a spectrophotometer.
# PCR was performed on the GeneAmp PCR system 2400 (Perkin Elmer) and initiated by 1 cycle at 94° C. for 3 min, 50° C. for 4 min, and 68° C. for 2 min, then 25 rounds at 94° C. for 30 sec, 50° C. for 30 sec, and 68° C. for 90 sec, followed by 68° C. for 10 min. […] The gel was then dried and the amplification products were detected. […]
# [5] = system: FaDu cells; assay: Cell detachment from the growth surface
# Protocol: Upon drug treatment, the supernatant along with two subsequent Versene rinses, which contained the detached cells, were collected. […] These samples were centrifuged at 1500 rpm for 10 min and the resulting cell pellets were resuspended in 2 ml of culture media. The cell number in the detached and attached fractions were counted using a Coulter counter (Coulter Electronic, Inc., Hialeah, Fla.).
# Treatment with the above agents was initiated after cells were allowed to attach to the growth surface in culture flasks. On the day of experiments, the culture medium was removed and replaced with drug-containing medium. […] For d4T, two concentrations, 20 μM and 40 μM were used.
# Agent effect was measured in three ways, i.e., enumeration of the number of cells that remained attached in culture flask, enumeration of the number of cells that detached from the growth surface, and by measuring changes in apoptosis. […] The drug-induced detachment of cells from the growth surface was determined by counting the attached and detached cells.
smiles,measurement,setting,value
CC(C)S[C@@H]1O[C@H](CO)[C@H](O)[C@H](O)[C@H]1O [+IPTG],Doubling time,[1],23 h
same,Terminal restriction fragment,[2],2.91 kb
same,telomerase activity,[3],98.9 % of control
N.N.[Cl][Pt][Cl] [cisplatin],telomerase activity,[4],50 % of the baseline level
"Cc1cn([C@H]2C=C[C@@H](CO)O2)c(=O)[nH]c1=O [d4T, 3′-deoxy-2′,3′-didehydrothymidine]",detachment of cells from the growth surface,[5]; d4T 20 μM and 40 μM,< 8%
same,effect of addition of d4T to paclitaxel on detached cell fraction,[5]; d4T 20 or 40 μM,significantly enhanced the detached cell fraction
